The supplement of paper PMC10307832

What was measured:
Assay in all cases: relative viability (nuclei count vs DMSO), 5 days (fraction); higher = more cells survive
AT9283 + Bortezomib = compound: O=C(Nc1c[nH]nc1-c1nc2ccc(CN3CCOCC3)cc2[nH]1)NC1CC1 [AT9283] + CC(C)C[C@H](NC(=O)[C@H](Cc1ccccc1)NC(=O)c1cnccn1)B(O)O [Bortezomib] (partner 0.002 µM)
Summary of the method: (§1)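 Cells from lung cancer lines were seeded into 1536-well plates and, one day later, dosed by pin tool. Treatments were either a single drug or a fixed dose of an anchor drug with five library-drug doses (not always all listed) in √10 steps. After 5 days, nuclei were stained in a one-step fixation (final 0.05% Triton X-100, 1% formaldehyde, 1 ug/ml Hoechst) and counted on 4× images, and relative viability is the treated-to-vehicle nuclei ratio, as the median of duplicate plates.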

Erlotinib + Foretinib = compound: C#Cc1cccc(Nc2ncnc3cc(OCCOC)c(OCCOC)cc23)c1 [Erlotinib] + COc1cc2c(Oc3ccc(NC(=O)C4(C(=O)Nc5ccc(F)cc5)CC4)cc3F)ccnc2cc1OCCCN1CCOCC1 [Foretinib] (partner 0.25 µM)
Summary of the method: as §1

Erlotinib + Alpelisib = compound: C#Cc1cccc(Nc2ncnc3cc(OCCOC)c(OCCOC)cc23)c1 [Erlotinib] + Cc1nc(NC(=O)N2CCC[C@H]2C(N)=O)sc1-c1ccnc(C(C)(C)C(F)(F)F)c1 [Alpelisib] (partner 2 µM)
Summary of the method: as §1

Erlotinib + Luminespib = compound: C#Cc1cccc(Nc2ncnc3cc(OCCOC)c(OCCOC)cc23)c1 [Erlotinib] + CCNC(=O)c1noc(-c2cc(C(C)C)c(O)cc2O)c1-c1ccc(CN2CCOCC2)cc1 [Luminespib] (partner 0.01 µM)
Summary of the method: as §1

AT9283 + Linsitinib = compound: O=C(Nc1c[nH]nc1-c1nc2ccc(CN3CCOCC3)cc2[nH]1)NC1CC1 [AT9283] + C[C@]1(O)C[C@@H](c2nc(-c3ccc4ccc(-c5ccccc5)nc4c3)c3c(N)nccn32)C1 [Linsitinib] (partner 1 µM)
Summary of the method: as §1

Cell Line | relative viability (AT9283 + Bortezomib; first compound 0.003 µM) | relative viability (AT9283 + Bortezomib; first compound 0.03 µM) | relative viability (AT9283 + Bortezomib; first compound 0.09487 µM) | relative viability (AT9283 + Bortezomib; first compound 0.3 µM) | relative viability (Erlotinib + Foretinib; first compound 0.02 µM) | relative viability (Erlotinib + Foretinib; first compound 0.2 µM) | relative viability (Erlotinib + Foretinib; first compound 0.6325 µM) | relative viability (Erlotinib + Foretinib; first compound 2 µM) | relative viability (Erlotinib + Alpelisib; first compound 0.02 µM) | relative viability (Erlotinib + Alpelisib; first compound 0.2 µM) | relative viability (Erlotinib + Alpelisib; first compound 0.6325 µM) | relative viability (Erlotinib + Alpelisib; first compound 2 µM) | relative viability (Erlotinib + Luminespib; first compound 0.02 µM) | relative viability (Erlotinib + Luminespib; first compound 0.2 µM) | relative viability (Erlotinib + Luminespib; first compound 0.6325 µM) | relative viability (Erlotinib + Luminespib; first compound 2 µM) | relative viability (AT9283 + Linsitinib; first compound 0.003 µM) | relative viability (AT9283 + Linsitinib; first compound 0.03 µM) | relative viability (AT9283 + Linsitinib; first compound 0.09487 µM) | relative viability (AT9283 + Linsitinib; first compound 0.3 µM)
EPLC-272H | 0.786 | 0.831 | 0.802 | 0.122 | 0.821 | 0.477 | 0.534 | 0.342 | 1.01 | 0.979 | 0.818 | 0.679 | 0.176 | 0.233 | 0.326 | 0.196 | 1.26 | 1.25 | 0.973 | 0.183
NCI-H1355 | 1.15 | 1.13 | 1.23 | 0.287 | 1.01 | 0.821 | 0.877 | 0.781 | – | 0.742 | 0.685 | 0.518 | – | 0.597 | 0.658 | 0.557 | 0.807 | 0.649 | 0.273 | 0.167
BEN | 0.688 | 0.739 | 0.242 | 0.27 | 0.679 | 0.663 | 1 | 0.872 | 1.08 | 1.01 | 1.26 | – | 0.369 | 0.34 | 0.442 | 0.693 | 0.718 | 0.894 | 0.2 | 0.227
NCI-H1623 | – | – | – | – | 0.923 | 0.679 | 0.366 | 0.301 | – | – | – | – | 0.414 | 0.425 | 0.352 | 0.336 | – | – | – | –
NCI-H727 | 0.824 | 0.508 | 0.351 | 0.306 | 0.847 | 0.75 | 0.813 | 0.726 | 0.612 | 0.48 | 0.459 | 0.463 | 0.345 | – | 0.3 | 0.191 | 0.211 | 0.16 | 0.199 | 0.23
NCI-H2342 | – | – | – | – | 1.08 | 0.899 | 0.932 | – | – | – | – | – | 0.731 | 0.609 | 0.573 | 0.739 | – | – | – | –
UMC-11 | 0.465 | 0.108 | 0.0924 | 0.129 | 1.04 | 0.973 | 1.08 | 1.08 | 0.986 | 1.06 | 1.21 | 1.05 | 1.05 | 0.93 | 1.32 | 1.11 | 0.849 | 0.138 | 0.14 | 0.168
NCI-H1755 | 0.983 | 0.91 | 0.498 | 0.529 | 0.942 | 0.936 | 0.916 | 0.907 | 1.01 | 0.933 | 0.937 | 0.872 | 0.412 | 0.432 | 0.536 | 0.413 | 0.996 | 0.847 | 0.516 | 0.404
IA-LM | 0.748 | 0.367 | 0.112 | 0.0951 | 1.31 | 1.12 | 1.19 | 1.03 | 0.984 | – | 0.7 | 0.789 | – | – | – | – | 0.626 | 0.432 | 0.311 | 0.102
ChaGo-K-1 | 0.889 | 0.908 | 0.356 | 0.303 | 0.913 | 0.836 | 0.923 | 0.879 | – | – | – | – | 0.635 | 0.541 | 0.604 | 0.505 | – | – | – | –
NCI-H1793 | – | – | – | – | 0.575 | 0.421 | 0.541 | 0.408 | 0.747 | 0.549 | 0.516 | 0.579 | 0.167 | 0.19 | 0.169 | 0.125 | 0.941 | 0.859 | 0.339 | 0.209
LK-2 | – | – | – | – | 1.24 | 0.718 | 1.46 | 1.23 | 0.932 | 0.976 | 1.33 | 1.03 | 0.151 | 0.166 | 0.203 | 0.15 | 0.341 | 0.351 | 0.129 | 0.127
NCI-H358 | – | – | – | – | 0.656 | 0.408 | 0.39 | 0.176 | 0.885 | 0.693 | 0.474 | 0.358 | 0.262 | 0.225 | 0.31 | 0.12 | 0.447 | 0.142 | 0.12 | 0.17
EBC-1 | 0.526 | 0.239 | 0.172 | 0.169 | 0.0955 | 0.0898 | 0.104 | 0.0948 | 0.792 | 0.772 | 0.757 | 0.792 | – | – | – | – | 0.997 | 0.354 | 0.214 | 0.111
NCI-H1792 | 0.918 | 0.985 | 0.961 | 0.701 | – | – | – | – | – | 0.595 | 0.77 | 0.49 | 0.42 | 0.319 | 0.49 | 0.281 | 0.492 | 0.629 | 0.192 | 0.117
SK-MES-1 | – | – | – | – | 1.03 | 0.635 | – | 0.357 | 0.926 | 0.536 | 0.533 | 0.298 | 0.77 | 0.453 | 0.486 | 0.461 | 1.07 | 0.933 | 0.846 | 0.17
SW 900 | – | – | – | – | 0.98 | 0.92 | 0.792 | 0.757 | – | – | – | – | 0.201 | 0.172 | 0.178 | 0.173 | – | – | – | –
NCI-H1944 | – | – | – | – | 0.833 | 0.54 | 0.579 | 0.56 | 0.708 | 0.562 | 0.595 | 0.504 | 0.813 | 0.471 | 0.609 | 0.434 | 1.17 | 0.973 | 0.528 | 0.331
NCI-H1395 | – | – | – | – | 1.04 | 0.906 | 1.13 | 0.975 | 1.34 | 1.08 | 1.08 | 1.07 | 0.919 | 0.613 | 0.676 | 0.671 | 1.08 | 0.901 | 0.373 | 0.383
A549 | – | – | – | – | 0.795 | 0.947 | 0.902 | 0.786 | 0.709 | 0.68 | 0.728 | 0.595 | – | – | – | – | 0.539 | 0.311 | 0.0598 | 0.0613
NCI-H1703 | 0.452 | 0.196 | 0.141 | 0.169 | 0.33 | 0.419 | 0.343 | 0.357 | 0.367 | 0.321 | 0.352 | 0.296 | – | – | – | – | 0.985 | 0.284 | 0.258 | 0.223
